What was measured:
Assay type in all cases: cell-based
HCC827 cells [1] = experiment: Resazurin conversion cell viability/proliferation assay in HCC827 cells; details: for overall effects on cell viability and mitochondrial function (summary): cultured cells, relatively high dosage
Procedure: (§1) Non-small cell lung cancer cells, HCC827 (ATCC) were cultured in RPMI-1640 Glutamax medium (Sigma-Aldrich St. Louis, Mo., USA), under conventional culture conditions. Media was supplemented with 10% Fetal Bovine Serum (FBS), 1% glutamine and 1% streptomycin/penicillin (Sigma-Aldrich). HeLaNRF1/c4 reporter cells were cultured in Dulbecco's Modified Eagle's Medium (DMEM) supplemented with 10% FBS, 2 mM L-Glutamine, 100 u/ml penicillin/streptomycin (Sigma-Aldrich,). Incubation was done at 37° C. in 5% CO2.
(§2) Cell viability/proliferation was determined by the resazurin conversion assay. A total of 4000 cells were seeded in each of the 96-well plates in 100 μl of medium. After 3 hours of incubation, 100 μl of fresh medium with respective concentration of the desired compound or controls were added. Resazurin solution (Sigma-Aldrich) was added (10%, v/v in PBS) after 1 or 3 day treatment, followed by 3 hour incubation at 37° C. and 5% CO2. Resazurin fluorescence (excitation, 540 nm; emission, 590 nm) was measured and measurements were corrected for background signals. […] Relative viability was calculated from percent fluorescence relative to DMSO-treated control wells.

HCC827 cells [2] = experiment: Mitochondria respiration assay (OCR, extracellular flux) in HCC827 cells
Procedure: as §1
Mitochondria function was analyzed by measuring oxygen consumption rate (OCR) by extracellular flux analysis in a Seahorse XFe96 instrument (Agilent Seahorse XF Technologies). The measurements were performed in DADA basic media without phenol red, supplemented with L-glutamine (2 mM), pyruvate (2 mM), and sodium chloride, NaCl (32 mM) (Sigma-Aldrich). Respiratory rates were measured following sequential additions of glucose (10 mM), oligomycin, carbonyl cyanide m-chlorophenyl hydrazine (CCCP) and a mixture of rotenone (1 μM) and antimycin A (1 μM). Before carrying out the measurements for each cell model, optimizations were done for; cell number, CCCP, and oligomycin concentrations. For the HCC 827 cell model optimal conditions were; 30,000 cells/well, 0.5 μM CCCP, and 3 μM Oligomycin; and in HeLaNRF1/c4 reporter cell model; 20,000 cells/well, 1 μM CCCP and 3 μM Oligomycin. The OCR measured initially (before any additions) represented the rate ‘basal respiration.’ The addition of ATP synthase inhibitor oligomycin provided oxygen consumption independent of ATP production (‘leak activity’). Maximal respiration (also referred to as ‘respiratory capacity’) was measured upon addition of the uncoupler CCCP. […] After the extracellular flux analysis the analysis plates were washed with Phosphate Buffered Saline (PBS) and frozen at −80° C. The BCA assay (Pierce BCA protein assay kit, Thermo Fisher Scientific, Waltham, Mass. USA) was employed to measure the protein content in the wells. To evaluate the effects of the different treatments, the respiratory rates from compound-treated wells were normalized to protein content, and calculated as percentage of the average respiratory rate of the DMSO-treated control wells. All treatments were performed with 6-8 replicate wells.

[3] = test system: HeLaNRF1/c4 reporter cells; experiment: Resazurin conversion assay in HeLaNRF1/c4 reporter cells; details: test compounds 30 μM and 60 μM, long treatment
Procedure: as §1, §2
In order to investigate if some of the compounds induce metabolic adaptations involving mitochondrial biogenesis, we employed the HeLaNRF1/c4 reporter cells in which activation of the transcription factor NRF1 triggers expression of GFP. Since adaptations of mitochondrial biogenesis are known to require some days to develop, we used a relatively low dosage (30 μM and 60 μM) of the compounds, to allow longer treatment period compared to the previous short term experiments.

[4] = test system: HeLaNRF1/c4 reporter cells; experiment: Gene expression (qPCR) in HeLaNRF1/c4 reporter cells; details: long-term treatment
Procedure: The HeLaNRF1/c4 reporter cells were employed to investigate effects of the modified fatty acids on NRF1-regulated mitochondrial biogenesis. The cells (250,000) were seeded in T75 flasks and incubated for 3 hours to allow attachment. The compounds were dissolved in DMSO and diluted in culture medium to provide the final concentration. DMSO at a concentration equivalent to the highest compound concentration was added to control cultures. Resveratrol and AICAR were used as positive controls. Resveratrol has not previously been tested in this reporter model, but we found it relevant to include it for purposes of experimental and mechanistic comparisons. After 3 days of treatment the media was replaced with fresh media containing the corresponding compound. On day 5, the cells were harvested and the cultures split into three fractions: One fraction was used for detection of mitoGFP expression by flow cytometry, to assess effects on NRF-1 regulated mitochondrial biogenesis. Flow cytometry analysis was performed as previously described. Another fraction was used for extraction of RNA and subsequent gene expression analysis using quantitative PCR (see below). The last fraction was employed to investigate effects on mitochondrial respiratory function by extracellular flux analysis (described above). The experiment was replicated three times.
Total RNA was extracted from harvested cells (RNAeasy kit Qiagen, Hilden, Germany). The RNA content was quantified on Nanodrop 1000 Spectrophotometer (Thermo Scientific). From 1 μg total RNA, cDNA was synthesized using High-Capacity Reverse Transcription Kit (Applied Biosystems, Carlsbad, Calif., US). Gene quantification was done using TaqMan probes for gene expression assays (Applied Biosystems). Probes used were: PGC1α (PPARG coactivator 1α), Hs00173304_m1; HIF1α (hypoxia inducible factor 1α), Hs00153153_m1; PDK1 (pyruvate dehydrogenase kinase 1), Hs01561847_m1; PDK4, (pyruvate dehydrogenase kinase 4), Hs01037712_m1; SIRT4 (sirtuin 4) Hs01015516_g1; ACOX1 (acyl-CoA oxidase 1) Hs01074241_m1; as reference genes, we used; Eukaryotic 18S rRNA Hs99999901_s1; actin beta Hs99999903_m1. Fold change was calculated as geometric mean of ΔΔCt of the two reference genes.

CC#CCCCCCCCCCCCSCC(=O)O [2-triple TTA, 2-(Tetradec-12-yn-1-ylthio)acetic acid]
viability (resazurin conversion) (HCC827 cells [1]; HCC827 cells, 200 μM): moderate antiproliferative effect | overall effects on cell viability and mitochondrial function (summary) (HCC827 cells [1]): harmful effects were significantly reduced | uncoupled respiratory capacity after CCCP (HCC827 cells [2]): stronger dose-dependent effect | leak respiration after oligomycin (HCC827 cells [2]; 100 μM TTA, 200 μM 2-triple TTA, 30 μM TDG): significantly increased | resazurin conversion [3]: little or no effect | PDK4 expression [4]: moderate effect

C#CCCCCCCCCCCCNCC(=O)O [2-triple TDG, N-(tridec-12-yn-yl) glycine]
overall effects on cell viability and mitochondrial function (summary) (HCC827 cells [1]): harmful effects were significantly reduced | resazurin conversion [3]: no significant effect | PDK4 expression [4]: moderate effect

CCCC(SCC)C(=O)O (stereo not drawn) [2-(ethylthio) pentanoic acid, 2-(ethylthio)pentanoic acid]
overall effects on cell viability and mitochondrial function (summary) (HCC827 cells [1]): only minor effects

Oc1ccc(C=Cc2cc(O)cc(O)c2)cc1 [resveratrol, Resveratrol, reference compound]
basal respiratory rate (OCR) (HCC827 cells [2]; compared to control): little or no effect | resazurin conversion [3]: moderate reduction

— US20220249525A1, “Fatty Acid Compounds for Prevention and Treatment of Neurodegenerative Disorders” (T OMEGA AS, priority 2019, published 2022)
